# In patent US7407775B2, “Method for identifying Listeria monocytogenes and culture medium” (Biomerieux S.A., priority 2000, dated 2008):
# Columns and labels:
# Type in all cases: cell-based
# Listeria innocua 171 = experiment: Experiment 3: detecting an esterase activity in liquid medium (API-type strips); set-up: key: —: the symbol “-” corresponds to the absence of color or intensity; 0 corresponds to no activity; 0.1 corresponds to a trace of color; 0.5 corresponds to very pale coloration; 1 corresponds to clear but low-intensity coloration; 1.5 corresponds to a degree of coloration intermediate between scores 1 and 2; 2 corresponds to clear coloration of moderate intensity; 2.5 corresponds to a degree of coloration intermediate between scores 2 and 3; 3 corresponds to intense coloration; 3.5 corresponds to a degree of coloration intermediate between scores 3 and 4; 4 corresponds to very intense coloration; details: 37° C.
# Procedure: (§1) In Table 1 above, as in the following Tables, C represents the color of the colonies after incubation, I represents the intensity of the color, and the symbol “-” corresponds to the absence of color or intensity; finally, IT defines the incubation time. It should be noted that the intensity of the color is scored on an arbitrary scale but one which is consistent for all the biological specimens and media tested. This scale is valid for this experiment as well as all those that follow. It can be defined in the following way: • 0 corresponds to no activity, • 0.1 corresponds to a trace of color, • 0.5 corresponds to very pale coloration, • 1 corresponds to clear but low-intensity coloration, • 1.5 corresponds to a degree of coloration intermediate between scores 1 and 2, • 2 corresponds to clear coloration of moderate intensity, • 2.5 corresponds to a degree of coloration intermediate between scores 2 and 3, • 3 corresponds to intense coloration, • 3.5 corresponds to a degree of coloration intermediate between scores 3 and 4, • 4 corresponds to very intense coloration.
# (§2) These substrates were lyophilized in the wells of API-type strips (Registered Trademark). Before use, the substrates contained in the wells were resuspended in an agar-free Columbia-type inoculation medium. These wells were then inoculated with a suspension (density=2 McFarland) of microorganisms taken from either the Applicant's own collection or the ATCC. The strips were incubated for 8 hours at 37° C. The colonies which grew were examined by eye after 4, 6 and 8 hours of incubation.
# (§3) The intensity of the color of the colonies was recorded.
# [1] = test system: Listeria monocytogenes 092; experiment: as above; set-up: key: —: the symbol “-” corresponds to the absence of color or intensity; 0 corresponds to no activity; 0.1 corresponds to a trace of color; 0.5 corresponds to very pale coloration; 1 corresponds to clear but low-intensity coloration; 1.5 corresponds to a degree of coloration intermediate between scores 1 and 2; 2 corresponds to clear coloration of moderate intensity; 2.5 corresponds to a degree of coloration intermediate between scores 2 and 3; 3 corresponds to intense coloration; 3.5 corresponds to a degree of coloration intermediate between scores 3 and 4; 4 corresponds to very intense coloration; details: 37° C.
# Procedure: as §1, §2, §3
# Listeria ivanovii 018 = experiment: as above; set-up: key: —: the symbol “-” corresponds to the absence of color or intensity; 0 corresponds to no activity; 0.1 corresponds to a trace of color; 0.5 corresponds to very pale coloration; 1 corresponds to clear but low-intensity coloration; 1.5 corresponds to a degree of coloration intermediate between scores 1 and 2; 2 corresponds to clear coloration of moderate intensity; 2.5 corresponds to a degree of coloration intermediate between scores 2 and 3; 3 corresponds to intense coloration; 3.5 corresponds to a degree of coloration intermediate between scores 3 and 4; 4 corresponds to very intense coloration; details: 37° C.
# Procedure: as §1, §2, §3
# [2] = test system: Listeria monocytogenes ATCC 19117; experiment: Experiment 1: esterase substrates, same chromogenic marker, fatty acids of different chain lengths; set-up: key to I (intensity of the color): —: the symbol “-” corresponds to the absence of color or intensity; 0 corresponds to no activity; 0.1 corresponds to a trace of color; 0.5 corresponds to very pale coloration; 1 corresponds to clear but low-intensity coloration; 1.5 corresponds to a degree of coloration intermediate between scores 1 and 2; 2 corresponds to clear coloration of moderate intensity; 2.5 corresponds to a degree of coloration intermediate between scores 2 and 3; 3 corresponds to intense coloration; 3.5 corresponds to a degree of coloration intermediate between scores 3 and 4; 4 corresponds to very intense coloration; details: 37° C., substrate 250 mg/l
# Procedure: (§4) A stock solution of each substrate at a concentration of 40 g/l was made up in a mixture of 40% Dimethylsulfoxide and 60% Polyoxyethylenesorbitan Monolaurate (Tween 20). An appropriate volume was added to three Columbia-type media while cooling to give a final substrate concentration of 250 mg/l. These dishes were divided into three areas and then each area was inoculated with a suspension (density=0.5 McFarland) of microorganisms taken from either the Applicant's own collection or the ATCC. The dishes were incubated for 48 hours at 37° C. The colonies which grew were examined by eye after 24 and 48 hours of incubation. Both the color and the intensity of the color of the colonies were recorded.
# as §1
# [3] = test system: Listeria monocytogenes ATCC 19115; experiment: as above; set-up: key to I (intensity of the color): —: the symbol “-” corresponds to the absence of color or intensity; 0 corresponds to no activity; 0.1 corresponds to a trace of color; 0.5 corresponds to very pale coloration; 1 corresponds to clear but low-intensity coloration; 1.5 corresponds to a degree of coloration intermediate between scores 1 and 2; 2 corresponds to clear coloration of moderate intensity; 2.5 corresponds to a degree of coloration intermediate between scores 2 and 3; 3 corresponds to intense coloration; 3.5 corresponds to a degree of coloration intermediate between scores 3 and 4; 4 corresponds to very intense coloration; details: 37° C., substrate 250 mg/l
# Procedure: as §4, §1
# [4] = test system: Listeria monocytogenes 092; experiment: as above; set-up: key to I (intensity of the color): —: the symbol “-” corresponds to the absence of color or intensity; 0 corresponds to no activity; 0.1 corresponds to a trace of color; 0.5 corresponds to very pale coloration; 1 corresponds to clear but low-intensity coloration; 1.5 corresponds to a degree of coloration intermediate between scores 1 and 2; 2 corresponds to clear coloration of moderate intensity; 2.5 corresponds to a degree of coloration intermediate between scores 2 and 3; 3 corresponds to intense coloration; 3.5 corresponds to a degree of coloration intermediate between scores 3 and 4; 4 corresponds to very intense coloration; details: 37° C., substrate 250 mg/l
# Procedure: as §4, §1
Compound,I (intensity of the color) (Listeria innocua 171; IT 4 h),I (intensity of the color) (Listeria innocua 171; IT 6 h),I (intensity of the color) (Listeria innocua 171; IT 8 h),I (intensity of the color) ([1]; IT 4 h),I (intensity of the color) ([1]; IT 6 h),I (intensity of the color) ([1]; IT 8 h),I (intensity of the color) (Listeria ivanovii 018; IT 4 h),I (intensity of the color) (Listeria ivanovii 018; IT 6 h),I (intensity of the color) (Listeria ivanovii 018; IT 8 h),C (color of the colonies) ([2]; IT 24 h),I (intensity of the color) ([2]; IT 24 h),C (color of the colonies) ([2]; IT 48 h),I (intensity of the color) ([2]; IT 48 h),C (color of the colonies) ([3]; IT 24 h),I (intensity of the color) ([3]; IT 24 h),C (color of the colonies) ([3]; IT 48 h),I (intensity of the color) ([3]; IT 48 h),C (color of the colonies) ([4]; IT 24 h),I (intensity of the color) ([4]; IT 24 h),C (color of the colonies) ([4]; IT 48 h),also measured
"CCCCCCCC(=O)Oc1c[nH]c2ccc(Br)c(Cl)c12 [X-C8, 5-Bromo-4-chloro-3-indolyl octanoate]",—,—,—,—,1,1.5,—,—,—,,,,,,,,,,,,
"CCCCCCCC(=O)Oc1c[nH]c2cc(Cl)ccc12 [Pink-C8, 6-Chloro-3-indolyl octanoate]",—,—,—,—,—,—,—,—,—,,,,,,,,,,,,
"CCCCCCCC(=O)Oc1c[nH]c2ccc(Br)cc12 [Blue-C8, 5-Bromo-3-indolyl octanoate]",,,,,,,,,,gray,1,gray,2,gray,1,gray,2,gray,1.5,gray,I (intensity of the color) ([4]; IT 48 h): 2.5
"CCCCCCCC(=O)Oc1c[nH]c2cc(Cl)c(Br)cc12 [Magenta-C8, 5-Bromo-6-chloro-3-indolyl octanoate]",—,—,—,—,—,0.5,—,—,—,,,,,,,,,,,,
"CCCCCCCCCC(=O)Oc1c[nH]c2ccc(Br)cc12 [Blue-C10, 5-Bromo-3-indolyl decanoate]",,,,,,,,,,gray,0.5,gray,1,gray,0.5,gray,1,gray,1,gray,I (intensity of the color) ([4]; IT 48 h): 2
"CCCCCCCCC(=O)Oc1c[nH]c2ccc(Br)cc12 [Blue-C9, 5-Bromo-3-indolyl nonanoate]",,,,,,,,,,gray,1,gray,1.5,gray,1,gray,2,gray,1,gray,I (intensity of the color) ([4]; IT 48 h): 2
